This is an account of results in patent EP4722207A1, “OXOISOINDOLINYL-SUBSTITUTED TETRAHYDROPYRIMIDINEDIONE DERIVATIVE AND USE THEREOF” (Gluetacs Therapeutics (Shanghai) Co., Ltd., priority 2023, dated 2024).

For one experiment, the target named is T1, IKZF1 (Homo sapiens, UniProt Q13422+Q96SW2).
T1 construct: effects of the compounds of the present disclosure on the expression of target proteins in cells; endogenous in cells; host or cells: human PBMCs (hPBMCs)
As to the kind of experiment: Western-blot assay, substrate protein degradation in hPBMCs: IKZF1. Type of experiment: cell-based. The settings on record: 24 hours of compound treatment, 50 nM and 500 nM.

Another experiment deals with T2, GSPT1 (Homo sapiens, UniProt P15170+Q96SW2).
T2 construct: effects of the compounds of the present disclosure on the expression of target proteins in cells; endogenous in cells; host or cells: human PBMCs (hPBMCs)
T2 sequence (P15170 whole entry): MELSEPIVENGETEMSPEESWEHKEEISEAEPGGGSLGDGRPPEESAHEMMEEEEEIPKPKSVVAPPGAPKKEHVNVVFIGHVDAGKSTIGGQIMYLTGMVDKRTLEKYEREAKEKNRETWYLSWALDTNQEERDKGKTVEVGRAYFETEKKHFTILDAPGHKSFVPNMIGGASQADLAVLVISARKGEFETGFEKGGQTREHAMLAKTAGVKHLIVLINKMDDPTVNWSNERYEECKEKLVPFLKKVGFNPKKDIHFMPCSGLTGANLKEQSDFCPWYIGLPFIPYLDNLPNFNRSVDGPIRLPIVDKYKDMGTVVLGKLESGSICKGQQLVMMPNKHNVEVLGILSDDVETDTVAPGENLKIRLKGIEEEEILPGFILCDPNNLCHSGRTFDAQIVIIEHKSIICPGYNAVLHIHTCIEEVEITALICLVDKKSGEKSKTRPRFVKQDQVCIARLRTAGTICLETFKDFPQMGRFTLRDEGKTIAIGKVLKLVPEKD
T2 sequence (Q96SW2 whole entry): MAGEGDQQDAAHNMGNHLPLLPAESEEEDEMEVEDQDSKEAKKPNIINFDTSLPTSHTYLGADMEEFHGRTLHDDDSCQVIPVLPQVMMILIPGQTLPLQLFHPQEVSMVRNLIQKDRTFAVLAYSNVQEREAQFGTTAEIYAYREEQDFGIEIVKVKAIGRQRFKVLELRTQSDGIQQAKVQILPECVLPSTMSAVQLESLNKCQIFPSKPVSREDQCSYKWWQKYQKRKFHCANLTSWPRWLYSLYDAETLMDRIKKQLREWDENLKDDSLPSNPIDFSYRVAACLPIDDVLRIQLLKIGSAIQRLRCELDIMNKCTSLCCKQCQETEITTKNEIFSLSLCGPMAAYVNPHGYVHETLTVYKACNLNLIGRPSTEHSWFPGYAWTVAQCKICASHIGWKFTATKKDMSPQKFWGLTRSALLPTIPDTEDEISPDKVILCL
T2 sequence (Q16531 whole entry partner): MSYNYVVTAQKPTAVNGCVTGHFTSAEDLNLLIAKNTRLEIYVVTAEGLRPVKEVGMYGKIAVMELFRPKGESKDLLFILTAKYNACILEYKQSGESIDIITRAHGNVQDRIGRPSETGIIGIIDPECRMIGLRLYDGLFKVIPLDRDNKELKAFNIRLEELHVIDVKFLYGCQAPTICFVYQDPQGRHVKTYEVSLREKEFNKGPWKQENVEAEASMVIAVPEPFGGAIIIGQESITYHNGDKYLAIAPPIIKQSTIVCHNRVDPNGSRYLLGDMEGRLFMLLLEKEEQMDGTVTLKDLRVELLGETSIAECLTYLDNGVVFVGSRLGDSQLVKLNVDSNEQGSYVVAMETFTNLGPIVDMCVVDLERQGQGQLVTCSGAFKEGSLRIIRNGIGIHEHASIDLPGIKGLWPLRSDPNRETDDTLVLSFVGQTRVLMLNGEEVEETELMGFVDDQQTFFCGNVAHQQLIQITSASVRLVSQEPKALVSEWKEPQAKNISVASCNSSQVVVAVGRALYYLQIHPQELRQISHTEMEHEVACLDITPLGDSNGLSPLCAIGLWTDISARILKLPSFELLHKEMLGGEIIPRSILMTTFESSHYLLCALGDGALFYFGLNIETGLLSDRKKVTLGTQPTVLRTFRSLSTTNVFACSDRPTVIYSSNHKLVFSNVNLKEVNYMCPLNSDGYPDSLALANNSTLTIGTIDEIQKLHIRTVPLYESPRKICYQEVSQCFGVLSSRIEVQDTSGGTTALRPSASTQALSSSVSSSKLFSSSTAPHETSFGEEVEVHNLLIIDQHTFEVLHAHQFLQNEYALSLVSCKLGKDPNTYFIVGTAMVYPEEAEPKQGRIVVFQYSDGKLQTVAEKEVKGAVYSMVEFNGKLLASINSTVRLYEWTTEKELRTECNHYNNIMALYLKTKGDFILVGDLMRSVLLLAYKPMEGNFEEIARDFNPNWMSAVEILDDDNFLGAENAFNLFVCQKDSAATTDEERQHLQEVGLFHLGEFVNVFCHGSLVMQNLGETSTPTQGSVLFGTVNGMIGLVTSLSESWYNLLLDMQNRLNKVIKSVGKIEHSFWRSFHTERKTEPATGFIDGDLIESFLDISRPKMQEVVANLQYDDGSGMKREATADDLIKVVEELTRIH
As to the kind of experiment: Western-blot assay, substrate protein degradation in hPBMCs: GSPT1. Type of experiment: cell-based. The note with it: 24 hours of compound treatment, 50 nM and 500 nM.

A further experiment relates to H2228. Nature of the experiment: Cell viability assay (CellTiter-Meiluncell Luminescent), tumor cell proliferation, H2228. The settings on record: Homo sapiens, NCI-H2228, 96 h; for inhibition at 0.01 µM: read-out: Inhibition Rate at 10 nM (%); for inhibition at 0.5 µM: read-out: Inhibition Rate at 500 nM (%).
The target in the next experiment is T3, IKZF3 (Homo sapiens, UniProt Q96SW2+Q9UKT9).
T3 construct: effects of the compounds of the present disclosure on the expression of target proteins in cells; endogenous in cells; host or cells: human PBMCs (hPBMCs)
T3 sequence (Q9UKT9 whole entry): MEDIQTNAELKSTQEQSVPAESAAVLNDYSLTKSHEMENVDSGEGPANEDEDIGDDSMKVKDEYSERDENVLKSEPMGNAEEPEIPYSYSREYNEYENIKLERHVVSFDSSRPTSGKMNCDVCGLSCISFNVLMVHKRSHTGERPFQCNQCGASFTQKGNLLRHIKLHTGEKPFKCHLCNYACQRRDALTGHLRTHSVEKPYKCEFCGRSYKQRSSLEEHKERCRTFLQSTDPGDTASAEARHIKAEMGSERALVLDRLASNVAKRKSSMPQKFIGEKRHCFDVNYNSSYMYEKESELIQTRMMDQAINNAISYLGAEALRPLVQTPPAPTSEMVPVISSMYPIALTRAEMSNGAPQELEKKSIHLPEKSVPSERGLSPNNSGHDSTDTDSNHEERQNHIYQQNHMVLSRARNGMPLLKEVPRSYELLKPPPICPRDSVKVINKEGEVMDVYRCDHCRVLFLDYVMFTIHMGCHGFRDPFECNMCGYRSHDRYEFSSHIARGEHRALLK
T3 sequence (Q96SW2 whole entry): as the sequence (Q96SW2 whole entry) above
T3 sequence (Q16531 whole entry partner): as the sequence (Q16531 whole entry partner) above
As to the kind of experiment: Western-blot assay, substrate protein degradation in hPBMCs: IKZF3. In kind it is cell-based. The note with it: 24 hours of compound treatment, 50 nM and 500 nM.

The target of another experiment is T4, WEE1 (Homo sapiens, UniProt P30291+Q96SW2).
T4 construct: effects of the compounds of the present disclosure on the expression of target proteins in cells; endogenous in cells; host or cells: human PBMCs (hPBMCs)
T4 sequence (P30291 whole entry): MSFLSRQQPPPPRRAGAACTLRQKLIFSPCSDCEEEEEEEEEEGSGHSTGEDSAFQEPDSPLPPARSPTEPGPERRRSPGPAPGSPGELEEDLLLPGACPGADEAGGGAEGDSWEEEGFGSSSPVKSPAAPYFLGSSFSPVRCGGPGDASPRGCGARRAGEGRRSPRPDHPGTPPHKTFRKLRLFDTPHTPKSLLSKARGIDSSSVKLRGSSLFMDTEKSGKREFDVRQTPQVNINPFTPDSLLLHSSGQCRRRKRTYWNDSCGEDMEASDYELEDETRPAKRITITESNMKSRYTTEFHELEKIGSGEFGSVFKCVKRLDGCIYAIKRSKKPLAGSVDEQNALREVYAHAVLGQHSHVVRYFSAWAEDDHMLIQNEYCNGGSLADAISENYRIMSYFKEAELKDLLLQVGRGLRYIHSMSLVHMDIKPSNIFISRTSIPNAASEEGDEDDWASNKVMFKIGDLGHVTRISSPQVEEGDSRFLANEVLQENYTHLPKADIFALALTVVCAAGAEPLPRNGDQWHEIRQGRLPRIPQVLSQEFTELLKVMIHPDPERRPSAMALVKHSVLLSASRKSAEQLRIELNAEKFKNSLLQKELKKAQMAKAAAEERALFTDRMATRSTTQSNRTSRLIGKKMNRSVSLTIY
T4 sequence (Q96SW2 whole entry): as the sequence (Q96SW2 whole entry) above
T4 sequence (Q16531 whole entry partner): as the sequence (Q16531 whole entry partner) above
As to the kind of experiment: Western-blot assay, substrate protein degradation in hPBMCs: WEE1. Type of experiment: cell-based. The note with it: 24 hours of compound treatment, 50 nM and 500 nM.

The next experiment has as its system H292. Nature of the experiment: Cell viability assay (CellTiter-Meiluncell Luminescent), tumor cell proliferation, H292. The settings on record: Homo sapiens, NCI-H292, 96 h; for inhibition at 0.01 µM: read-out: Inhibition Rate at 10 nM (%); for inhibition at 0.5 µM: read-out: Inhibition Rate at 500 nM (%).
For another experiment, the target named is T5, IKZF2 (Homo sapiens, UniProt Q96SW2+Q9UKS7).
T5 construct: effects of the compounds of the present disclosure on the expression of target proteins in cells; endogenous in cells; host or cells: human PBMCs (hPBMCs)
T5 sequence (Q9UKS7 whole entry): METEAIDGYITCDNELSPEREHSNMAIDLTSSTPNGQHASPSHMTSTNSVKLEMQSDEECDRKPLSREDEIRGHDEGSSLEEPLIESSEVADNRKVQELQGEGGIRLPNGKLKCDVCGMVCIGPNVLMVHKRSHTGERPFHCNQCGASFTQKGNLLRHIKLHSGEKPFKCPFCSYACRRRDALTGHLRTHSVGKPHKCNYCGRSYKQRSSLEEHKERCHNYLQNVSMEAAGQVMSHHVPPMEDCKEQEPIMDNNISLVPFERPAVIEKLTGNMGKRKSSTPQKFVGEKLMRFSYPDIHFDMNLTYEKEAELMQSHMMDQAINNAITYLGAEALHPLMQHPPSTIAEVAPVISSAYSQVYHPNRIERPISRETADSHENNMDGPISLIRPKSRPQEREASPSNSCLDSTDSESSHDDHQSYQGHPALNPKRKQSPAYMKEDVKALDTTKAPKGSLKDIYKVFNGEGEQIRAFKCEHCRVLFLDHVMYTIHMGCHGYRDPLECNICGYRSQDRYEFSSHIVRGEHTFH
T5 sequence (Q96SW2 whole entry): as the sequence (Q96SW2 whole entry) above
T5 sequence (Q16531 whole entry partner): as the sequence (Q16531 whole entry partner) above
As to the kind of experiment: Western-blot assay, substrate protein degradation in hPBMCs: IKZF2. In kind it is cell-based. The settings on record: 24 hours of compound treatment, 50 nM and 500 nM.

Another experiment has as its system MDA-MB-231. Nature of the experiment: Cell viability assay (CellTiter-Meiluncell Luminescent), tumor cell proliferation, MDA-MB-231. The settings on record: Homo sapiens, MDA-MB-231, 96 h; for inhibition at 0.01 µM: read-out: Inhibition Rate at 10 nM (%); for inhibition at 0.5 µM: read-out: Inhibition Rate at 500 nM (%).
A further experiment concerns the target T6, CK1α (Homo sapiens, UniProt P48729+Q96SW2).
T6 construct: effects of the compounds of the present disclosure on the expression of target proteins in cells; endogenous in cells; host or cells: human PBMCs (hPBMCs)
Nature of the experiment: Western-blot assay, substrate protein degradation in hPBMCs: CK1α. In kind it is cell-based. The settings on record: 24 hours of compound treatment, 50 nM and 500 nM.

The test system of another experiment is MV-4-11. As to the kind of experiment: Cell viability assay (CellTiter-Meiluncell Luminescent), tumor cell proliferation, MV-4-11. The settings on record: Homo sapiens, MV4-11, 96 h; for inhibition at 0.01 µM: read-out: Inhibition Rate at 10 nM (%); for inhibition at 0.5 µM: read-out: Inhibition Rate at 500 nM (%).
The next experiment concerns MM.1S. Nature of the experiment: Cell viability assay (CellTiter-Meiluncell Luminescent), tumor cell proliferation, MM.1S. The note with it: Homo sapiens, MM1.S, 96 h.

T6 sequence (P48729 whole entry): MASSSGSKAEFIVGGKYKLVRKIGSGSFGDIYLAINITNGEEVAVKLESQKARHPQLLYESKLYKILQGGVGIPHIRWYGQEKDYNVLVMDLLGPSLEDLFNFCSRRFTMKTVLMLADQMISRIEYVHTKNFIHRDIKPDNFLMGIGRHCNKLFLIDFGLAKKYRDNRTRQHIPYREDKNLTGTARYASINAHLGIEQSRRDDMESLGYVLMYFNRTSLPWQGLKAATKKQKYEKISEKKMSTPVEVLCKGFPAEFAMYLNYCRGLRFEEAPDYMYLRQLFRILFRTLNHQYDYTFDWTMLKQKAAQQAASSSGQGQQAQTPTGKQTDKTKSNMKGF
T6 sequence (Q96SW2 whole entry): as the sequence (Q96SW2 whole entry) above
T6 sequence (Q16531 whole entry partner): as the sequence (Q16531 whole entry partner) above

In general, inhibition refers to the drop in the measured response relative to a control, in per cent. On to `Cc1nc(C2CCN(Cc3ccc4c(c3)C(=O)N(N3CCC(=O)NC3=O)C4=O)CC2)c2c3c(sc2n1)CCCC3` [GT-08111, 2-(2,4-dioxotetrahydropyrimidin-1(2H)-yl)-5-((4-(2-methyl-5,6,7,8-tetrahydrobenzo[4,5]thieno[2,3-d]pyrimidin-4-yl)piperidin-1-yl)methyl)isoindoline-1,3-dione], for which, on IKZF1, the “substrate protein remaining % IKZF1” value was “B (80%< substrate protein remaining %≤ 100%)”. Moreover, the “substrate protein remaining % GSPT1” value on GSPT1 is recorded as “A (0% ≤ substrate protein remaining % ≤ 80%)”. Besides, the inhibition at 0.01 µM was in the range of 20 to 25% in the experiment with H2228, 20 to 40% with H292 and 25 to 40% in the experiment on MDA-MB-231. Also, the results for the inhibition at 0.5 µM with H2228, in the experiment with H292 and in the experiment on MDA-MB-231 were 25 to 30%, 20 to 40% and 25 to 40%, respectively. Further, the “substrate protein remaining % IKZF3” value at IKZF3 is “B (80%< substrate protein remaining %≤ 100%)”. Besides, the “substrate protein remaining % WEE1” value at WEE1 is listed as “B (80%< substrate protein remaining %≤ 100%)”. Besides, on IKZF2, the “substrate protein remaining % IKZF2” value was “B (80%< substrate protein remaining %≤ 100%)”. In addition, the “substrate protein remaining % CK1α” value at CK1α is “A (0% ≤ substrate protein remaining % ≤ 80%)”.

For `O=C1CCN(N2C(=O)c3ccc(CN4CCN(c5ncnc6scc(-c7ccccc7)c56)CC4)cc3C2=O)C(=O)N1` [GT-08098, 2-(2,4-dioxotetrahydropyrimidin-1(2H)-yl)-5-((4-(5-phenylthieno[2,3-d]pyrimidin-4-yl)piperazin-1-yl)methyl)isoindoline-1,3-dione], the “substrate protein remaining % IKZF1” value at IKZF1 is on record as “B (80%< substrate protein remaining %≤ 100%)”. Moreover, the “substrate protein remaining % GSPT1” value on GSPT1 is recorded as “A (0% ≤ substrate protein remaining % ≤ 80%)”. Further, in the experiment on H2228, the inhibition at 0.01 µM is 10 to 15% and the inhibition at 0.5 µM fell in the range of 25 to 30%. Also, at IKZF3, the “substrate protein remaining % IKZF3” value is reported as “B (80%< substrate protein remaining %≤ 100%)”. Further, in the experiment on MV-4-11, the inhibition at 0.01 µM is 18 to 25% and the inhibition at 0.5 µM was in the range of 18 to 25%. Also, the “substrate protein remaining % WEE1” value at WEE1 was “B (80%< substrate protein remaining %≤ 100%)”. The “substrate protein remaining % IKZF2” value on IKZF2 is “B (80%< substrate protein remaining %≤ 100%)”. Moreover, the “substrate protein remaining % CK1α” value at CK1α was “B (80%< substrate protein remaining %≤ 100%)”.

On to `Cc1sc2ncnc(N3CCN(Cc4ccc5c(c4)C(=O)N(N4CCC(=O)NC4=O)C5=O)CC3)c2c1C` [GT-08094, 5-((4-(5,6-dimethylthieno[2,3-d]pyrimidin-4-yl)piperazin-1-yl)methyl)-2-(2,4-dioxotetrahydropyrimidin-1(2H)-yl)isoindoline-1,3-dione], for which the “substrate protein remaining % IKZF1” value at IKZF1 is given as “B (80%< substrate protein remaining %≤ 100%)”. In addition, on GSPT1, the “substrate protein remaining % GSPT1” value is listed as “A (0% ≤ substrate protein remaining % ≤ 80%)”. The values for the inhibition at 0.01 µM in the experiment with H2228, in the experiment on H292 and in the experiment with MDA-MB-231 were 30 to 40%, 20 to 40% and 25 to 40%, respectively. The figures for the inhibition at 0.5 µM in the experiment on H2228, in the experiment on H292 and with MDA-MB-231 were 25 to 30%, 20 to 40% and 25 to 40%, respectively. Further, the “substrate protein remaining % IKZF3” value at IKZF3 is given as “B (80%< substrate protein remaining %≤ 100%)”. The “substrate protein remaining % WEE1” value on WEE1 is reported as “A (0% ≤ substrate protein remaining % ≤ 80%)”. Besides, the “substrate protein remaining % IKZF2” value at IKZF2 is reported as “B (80%< substrate protein remaining %≤ 100%)”. For the same molecule, the “substrate protein remaining % CK1α” value at CK1α is “A (0% ≤ substrate protein remaining % ≤ 80%)”.

Take `O=C1CCN(N2Cc3cc(CN4CCC(c5ncnc6scc(-c7ccccc7)c56)CC4)ccc3C2=O)C(=O)N1` [GT-08086, 1-(1-oxo-5-((4-(5-phenylthieno[2,3-d]pyrimidin-4-yl)piperidin-1-yl)methyl)isoindolin-2-yl)dihydropyrimidine-2,4(1H,3H)-dione]: the inhibition at 0.01 µM in the experiment on H2228 lay in the range of 20 to 25%; with H292, 20 to 40%; with MDA-MB-231, 25 to 40%. In addition, the inhibition at 0.5 µM lay within 20 to 25% with H2228, 20 to 40% in the experiment with H292 and 25 to 40% with MDA-MB-231.

`CC(C)c1cc2c(N3CCN(Cc4ccc5c(c4)C(=O)N(N4CCC(=O)NC4=O)C5=O)CC3)ncnc2s1` [GT-08093, 2-(2,4-dioxotetrahydropyrimidin-1(2H)-yl)-5-((4-(6-isopropylthieno[2,3-d]pyrimidin-4-yl)piperazin-1-yl)methyl)isoindoline-1,3-dione]: on IKZF1, the “substrate protein remaining % IKZF1” value was “B (80%< substrate protein remaining %≤ 100%)”. In addition, the “substrate protein remaining % GSPT1” value at GSPT1 is reported as “A (0% ≤ substrate protein remaining % ≤ 80%)”. The inhibition at 0.01 µM lay in the range of 20 to 25% in the experiment on H2228, 40 to 60% with MV-4-11 and 15 to 20% in the experiment on H292. Also, the inhibition at 0.5 µM in the experiment on H2228 lay in the range of 20 to 25%; in the experiment with MV-4-11, 60 to 80%; with H292 it was 15 to 20%. Moreover, the “substrate protein remaining % IKZF3” value at IKZF3 is listed as “B (80%< substrate protein remaining %≤ 100%)”. Moreover, the “substrate protein remaining % WEE1” value at WEE1 was “A (0% ≤ substrate protein remaining % ≤ 80%)”. Further, the “substrate protein remaining % IKZF2” value at IKZF2 is recorded as “B (80%< substrate protein remaining %≤ 100%)”. For the same molecule, the “substrate protein remaining % CK1α” value at CK1α is reported as “A (0% ≤ substrate protein remaining % ≤ 80%)”.

As for `Cc1sc2ncnc(N3CCN(Cc4ccc5c(c4)CN(N4CCC(=O)NC4=O)C5=O)CC3)c2c1C` [GT-08061, 1-(5-((4-(5,6-dimethylthieno[2,3-d]pyrimidin-4-yl)piperazin-1-yl)methyl)-1-oxoisoindolin-2-yl)dihydropyrimidine-2,4(1H,3H)-dione], at IKZF1, the “substrate protein remaining % IKZF1” value is on record as “B (80%< substrate protein remaining %≤ 100%)”. Besides, the “substrate protein remaining % GSPT1” value at GSPT1 is “B (80%< substrate protein remaining %≤ 100%)”. In addition, in the experiment on H2228, the inhibition at 0.01 µM lay within 10 to 15% and the inhibition at 0.5 µM lay in the range of 25 to 30%. Further, the “substrate protein remaining % IKZF3” value at IKZF3 is “A (0% ≤ substrate protein remaining % ≤ 80%)”. Moreover, the “substrate protein remaining % WEE1” value on WEE1 is recorded as “B (80%< substrate protein remaining %≤ 100%)”. In addition, the “substrate protein remaining % IKZF2” value on IKZF2 is listed as “A (0% ≤ substrate protein remaining % ≤ 80%)”. Moreover, in the experiment with MDA-MB-231, the inhibition at 0.01 µM was in the range of 10 to 15% and the inhibition at 0.5 µM was in the range of 18 to 25%. On CK1α, the “substrate protein remaining % CK1α” value is “B (80%< substrate protein remaining %≤ 100%)”.

Regarding `O=C1CCN(N2Cc3cc(CN4CC=C(c5ncnc6sc7c(c56)CCCC7)CC4)ccc3C2=O)C(=O)N1` [GT-08178, 1-(1-oxo-5-((4-(5,6,7,8-tetrahydrobenzo[4,5]thieno[2,3-d]pyrimidin-4-yl)-3,6-dihydropyridin-1(2H)-yl)methyl)isoindolin-2-yl)dihydropyrimidine-2,4(1H,3H)-dione], the inhibition at 0.01 µM with MM.1S (read-out: Inhibition Rate at 10 nM (%)) lay in the range of 60 to 80%; with MV-4-11 it was 60 to 80%; in the experiment with H292, 40 to 60%; in the experiment on MDA-MB-231, 18 to 25%. Besides, the inhibition at 0.5 µM with MM.1S (read-out: Inhibition Rate at 500 nM (%)) is 60 to 80%; in the experiment on MV-4-11, 80 to 100%; in the experiment on H292 it was 20 to 40%; in the experiment with MDA-MB-231 it was 18 to 25%.
